Reference: US12673036B2, “Method of using L-triiodothyronine (T3) for the treatment of tissue hypoxia and sepsis” (UNI-PHARMA KLEON TSETIS PHARMACEUTICAL LABORATORIES S.A., priority 2020, dated 2026)
Where two headings read alike, the source gives them in different places.

What was measured:
[1] = tested on: p38 MAPK; settings: T3 40 μg/L, P<0.05, cited from earlier work
[2] = tested on: sepsis; settings: rat sepsis models; cited from earlier work
[3] = tested on: isolated rat heart; assay: Isolated rat heart, prolonged 4 hour hypoxic perfusion ex vivo
Text: (§1) The isolated rat heart model was used to simulate non-ischemic conditions of tissue hypoxia ex vivo. In this study, rat hearts were only perfused with oxygenated Krebs buffer containing electrolytes and glucose under normothermia. Despite normal perfusion, the organ gradually develops significant dysfunction over hours due to the absence of erythrocytes and hemoglobin that create hypoxic conditions. […] It should be noted that such an increase in LVEDP may lead to pulmonary edema in vivo. Furthermore, the force of contraction was reduced as evident by a 25% decrease in left ventricular developed pressure (LVDP) in Control hearts (FIG. 2).

[4] = tested on: male C57BL/6N mice; assay: Cecal ligation and puncture (CLP) sepsis model; type: in vivo
Protocol: The effect of T3 administration in high dosages in the treatment of tissue hypoxia due to microvascular dysfunction occurring in the myocardium, kidneys and liver is evaluated in a sepsis experimental model using male C57BL/6N mice of 10-12 weeks age. The animal studies were carried out in compliance with all necessary regulations in force.
The simulation of the clinical conditions during sepsis leading to tissue hypoxia and microvascular dysfunction is achieved following the most widely used clinical model of cecal ligation and puncture (CLP). In this experimental model, ligation distal to the ileocecal valve (25% of total cecum length) and perforation by a single 21 G puncture is performed under sevoflurane anesthesia causing leakage of fecal contents into the peritoneum, with subsequent polymicrobial bacteremia and sepsis. The perforation of the cecum allows the release of fecal material into the peritoneal cavity to generate an exacerbated immune response induced by polymicrobial infection. In this model, sepsis causes systemic activation of the inflammatory response, microvascular dysfunction, tissue hypoxia, multi-organ failure, and hemodynamic disorder that results in death as in clinical practice.
The animals are supported by subcutaneous fluid administration every 8 hours and administration of buprenorphine 0.1 mg/kg and paracetamol 300 mg/kg, as is the case with septic patients in the intensive care unit (ICU). All animals are closely monitored for their clinical status based on a modified score scale known as the Lipopolysaccharide (LPS) Score Sheet.
The animals divide into 2 groups: the first group receives placebo (placebo group) and the second group receives intraperitoneally a dose of 0.3 μg T3/g of body weight, immediately after surgery (group T3). Based on guidelines for converting doses from experimental animals to equivalent doses in humans (Nair, A B and Jacob S. A simple practice guide for dose conversion between animals and humans. I Basic C/in Pharma 2016, 7: 27-31), the dose of 0.3 μg T3/g of body weight, corresponds roughly to intravenous administration of 7 μg T3/Kg body weight, i.e., from 400 to 600 μg T3 for a patient weighing 60-80 Kg. This dose is very high and beyond any T3 treatment in hypothyroid patients. The study is performed in two separate experiments. In the first experimental protocol, the clinical condition of the animals and mortality after 72 hours is examined, while in the second experimental protocol, tissue hypoxia at the cellular level after euthanasia at 18 hours is studied.
Initially, lactate levels in blood samples are measured (using L-lactate assay kit from Sigma-Aldrich, MAK329) as a general indicator of hypoxia, which is also commonly used in clinical practice in patients with sepsis. Furthermore, creatinine levels in blood are measured as an indicator of renal function (using the Mouse Creatinine Kit Cat. 80350, Crystal Chem). Finally, an echocardiographic analysis is performed in order to evaluate the end-diastolic and end-systolic volume, the ejection fraction and the pulse volume according to the Simpson rule.
Echocardiographic analysis was performed after mild anesthesia with sevoflurane (0.8%) and placing the animal in a heated blanket. Echocardiographic images were then taken along the longitudinal and transverse sternal axis with the Vivid 7 version Pro ultrasound system (GE Healthcare, Wauwatosa, Wisconsin), equipped with a 14.0-MHz probe (i13L).
Tissue hypoxia at the cellular level is determined in frozen fixed tissues in 4% paraformaldehyde based on the standard method of pimonidazole administration using the Hypoxyprobe™ Plus kit. Pimonidazole is dissolved and administered intravenously in mice at a dose of 60 mg/kg, 2 hours before euthanasia. After intracardiac infusion with paraformaldehyde, the organs are fixed, removed and dehydrated for 5 days in 30% sucrose solution. […]

[5] = tested on: p38 MAPK; assay: p38 MAPK activation in isolated rat heart after 4 hours hypoxic perfusion; settings: after 4 hours of prolonged hypoxic perfusion, p<0.05
Text: as §1

[6] = tested on: xenograft models (non-small cell lung, multiple myeloma, breast, glioblastoma, and ovary); settings: cited from earlier work
[7] = tested on: patients with non-ST-segment elevation myocardial infarction; settings: patients with NSTEMI; cited from earlier work
[8] = 40 μg/L after first 30 min of hypoxic perfusion, 4 hours
[9] = 18 hours after sepsis induction

In the case of `N[C@@H](Cc1cc(I)c(Oc2ccc(O)c(I)c2)c(I)c1)C(=O)O` [T3, L-triiodothyronine], the “phospho-p38 MAPK levels, less than control” value ([1]; after 5 minutes of reperfusion) is listed as 2.3 fold, the “phospho-p38 MAPK levels, less than control” value ([1]; after 15 minutes of reperfusion) is listed as 2.1 fold and the cytokine storm [2] is listed as “reduce cytokine storm”. The “lung function and surfactant synthesis” value [2] was “maintain lung function and surfactant synthesis”, the survival [2] was “improve survival” and the diastolic dysfunction [3, 8] was “attenuated diastolic dysfunction”. The “left ventricular end-diastolic pressure (LVEDP)” value [3, 8] was “maintained LVEDP at normal values”, the “force of contraction (left ventricular developed pressure, LVDP)” value ([3]; 40 μg/L, after 4 hours) was “improved force of contraction” and the “perfusion pressure of coronary vessels (microvascular dysfunction)” value ([3]; after 4 hours hypoxic perfusion) was “lower perfusion pressure”. The creatinine levels ([4]; 18 hours after sepsis) was “did not increase”, the “hepatic tissue hypoxia (pimonidazole)” value ([4]; 18 hours after sepsis) was “statistically significant reduction” and the “renal tissue hypoxia (pimonidazole) in OSOM and ISOM” value ([4]; 18 hours after sepsis) was “significantly reduce”. For the same molecule, the “ejection fraction (echocardiography)” value [4, 9] was “within normal range”, the “pulse volume (echocardiography)” value [4, 9] was “within normal range” and the “lactic acid levels in blood” value ([4]; 18 hours after sepsis, 0.3 μg T3/g i.p.) was “decrease”. The “myocardial tissue hypoxia, pimonidazole-positive tissue of the left ventricular total tissue” value ([4]; 18 hours, p=0.028 vs placebo) was 1.5%±0.5, the “lactic acid levels in blood” value ([4]; 24 hours after sepsis, 0.3 μg T3/g i.p.) was “decrease” and the animals surviving ([4]; 72 hours after CLP, 0.3 μg T3/g i.p.) was “up to 20%”. The heart rate ([4]; after sepsis induction) was “within normal range” and the “prevention of p38 MAPK activation” value [5] was 3 fold.
For `CC(C)(C)Cn1c(N)nc2ccc(-c3[nH]c(C(C)(C)C)nc3-c3ccc(F)cc3)nc21` [Ralimetinib], the “antineoplastic activity as a single agent” value [6] is given as “demonstrated antineoplastic activity”.
For `Cc1c(F)cc(C(=O)NC2CC2)cc1-c1ccc(C(=O)NCC(C)(C)C)cn1` [Losmapimod], the myocardial protective effects [7] is listed as “presented myocardial protective effects”.
